Experimental data: ChEMBL document CHEMBL5291721, “A preclinical secondary pharmacology resource illuminates target-adverse drug reaction associations of marketed drugs” (Nat Commun, 2023)

Columns and labels:
[1] = molecular target: Sodium-dependent noradrenaline transporter (Homo sapiens, UniProt P23975)
Thromboxane A2 receptor = molecular target: T1, Thromboxane A2 receptor (Homo sapiens, UniProt P21731)
T1 sequence (P21731 whole entry): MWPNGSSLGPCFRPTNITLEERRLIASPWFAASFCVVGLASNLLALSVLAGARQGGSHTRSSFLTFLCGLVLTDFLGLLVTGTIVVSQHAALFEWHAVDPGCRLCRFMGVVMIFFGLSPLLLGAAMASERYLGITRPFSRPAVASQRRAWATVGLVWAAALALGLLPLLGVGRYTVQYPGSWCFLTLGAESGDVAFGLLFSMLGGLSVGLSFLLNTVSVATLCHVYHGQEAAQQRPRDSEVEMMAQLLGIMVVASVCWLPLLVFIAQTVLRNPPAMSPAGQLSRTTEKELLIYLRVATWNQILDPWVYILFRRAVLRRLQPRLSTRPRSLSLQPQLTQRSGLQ

Glucocorticoid receptor = molecular target: T2, Glucocorticoid receptor (Homo sapiens, UniProt P04150)
T2 sequence (P04150 whole entry): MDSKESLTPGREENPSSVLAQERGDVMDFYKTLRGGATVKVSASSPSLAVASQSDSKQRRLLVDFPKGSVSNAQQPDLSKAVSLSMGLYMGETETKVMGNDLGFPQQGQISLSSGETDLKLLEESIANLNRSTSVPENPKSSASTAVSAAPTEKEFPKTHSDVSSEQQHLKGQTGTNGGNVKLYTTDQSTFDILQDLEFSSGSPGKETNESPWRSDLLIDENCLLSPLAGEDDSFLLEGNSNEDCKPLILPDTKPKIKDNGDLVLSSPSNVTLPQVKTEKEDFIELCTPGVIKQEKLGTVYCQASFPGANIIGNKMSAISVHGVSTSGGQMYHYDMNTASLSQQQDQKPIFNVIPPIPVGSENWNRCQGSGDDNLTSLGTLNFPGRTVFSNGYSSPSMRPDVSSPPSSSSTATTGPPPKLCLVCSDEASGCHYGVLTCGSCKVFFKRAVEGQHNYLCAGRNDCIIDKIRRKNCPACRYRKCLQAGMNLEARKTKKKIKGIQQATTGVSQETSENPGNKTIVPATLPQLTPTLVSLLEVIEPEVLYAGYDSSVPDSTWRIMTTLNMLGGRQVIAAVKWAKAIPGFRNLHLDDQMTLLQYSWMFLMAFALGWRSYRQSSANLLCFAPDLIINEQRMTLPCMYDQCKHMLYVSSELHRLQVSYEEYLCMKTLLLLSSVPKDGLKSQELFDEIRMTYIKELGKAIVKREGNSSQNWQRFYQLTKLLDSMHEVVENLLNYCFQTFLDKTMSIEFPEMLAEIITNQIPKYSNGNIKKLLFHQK

[2] = molecular target: Gamma-aminobutyric acid receptor subunit alpha-1 (Rattus norvegicus, UniProt P62813)
[3] = molecular target: T3, Cholecystokinin receptor type A (Homo sapiens, UniProt P32238)
T3 sequence (P32238 whole entry): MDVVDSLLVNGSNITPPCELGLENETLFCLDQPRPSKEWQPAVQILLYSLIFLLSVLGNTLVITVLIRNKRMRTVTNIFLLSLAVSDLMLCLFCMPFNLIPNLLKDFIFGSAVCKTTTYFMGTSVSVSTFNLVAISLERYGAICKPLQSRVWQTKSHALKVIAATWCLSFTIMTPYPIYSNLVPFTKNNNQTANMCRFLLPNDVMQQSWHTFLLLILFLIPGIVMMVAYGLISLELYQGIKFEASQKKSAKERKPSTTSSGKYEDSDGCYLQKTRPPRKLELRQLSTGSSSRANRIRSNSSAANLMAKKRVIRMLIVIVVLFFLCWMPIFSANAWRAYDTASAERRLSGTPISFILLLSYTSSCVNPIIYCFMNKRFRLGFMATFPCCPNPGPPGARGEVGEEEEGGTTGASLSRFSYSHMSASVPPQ

[4] = molecular target: T4, 5-hydroxytryptamine receptor 3A (Homo sapiens, UniProt P46098); assay type: functional
T4 sequence (P46098 whole entry): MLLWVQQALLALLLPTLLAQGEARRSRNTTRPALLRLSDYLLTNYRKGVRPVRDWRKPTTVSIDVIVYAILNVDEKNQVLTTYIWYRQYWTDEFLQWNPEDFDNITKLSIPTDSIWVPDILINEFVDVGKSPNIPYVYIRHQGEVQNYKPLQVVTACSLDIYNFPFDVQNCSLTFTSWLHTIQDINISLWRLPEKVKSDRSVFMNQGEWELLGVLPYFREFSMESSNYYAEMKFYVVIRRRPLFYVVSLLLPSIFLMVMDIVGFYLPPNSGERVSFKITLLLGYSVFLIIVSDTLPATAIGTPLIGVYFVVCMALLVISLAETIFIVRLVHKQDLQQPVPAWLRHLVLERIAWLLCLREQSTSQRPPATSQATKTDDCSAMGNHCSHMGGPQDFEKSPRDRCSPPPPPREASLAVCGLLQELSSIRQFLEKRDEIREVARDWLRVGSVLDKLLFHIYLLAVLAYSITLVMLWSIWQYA

[5] = molecular target: Growth hormone secretagogue receptor type 1 (Homo sapiens, UniProt Q92847)
Histamine H3 receptor = Histamine H3 receptor (Homo sapiens, UniProt Q9Y5N1)
Vasopressin V1a receptor = Vasopressin V1a receptor (Homo sapiens, UniProt P37288)
[6] = molecular target: Sodium-dependent dopamine transporter (Homo sapiens, UniProt Q01959)
[7] = molecular target: T5, 5-hydroxytryptamine receptor 2C (Homo sapiens, UniProt P28335)
T5 sequence (P28335 whole entry): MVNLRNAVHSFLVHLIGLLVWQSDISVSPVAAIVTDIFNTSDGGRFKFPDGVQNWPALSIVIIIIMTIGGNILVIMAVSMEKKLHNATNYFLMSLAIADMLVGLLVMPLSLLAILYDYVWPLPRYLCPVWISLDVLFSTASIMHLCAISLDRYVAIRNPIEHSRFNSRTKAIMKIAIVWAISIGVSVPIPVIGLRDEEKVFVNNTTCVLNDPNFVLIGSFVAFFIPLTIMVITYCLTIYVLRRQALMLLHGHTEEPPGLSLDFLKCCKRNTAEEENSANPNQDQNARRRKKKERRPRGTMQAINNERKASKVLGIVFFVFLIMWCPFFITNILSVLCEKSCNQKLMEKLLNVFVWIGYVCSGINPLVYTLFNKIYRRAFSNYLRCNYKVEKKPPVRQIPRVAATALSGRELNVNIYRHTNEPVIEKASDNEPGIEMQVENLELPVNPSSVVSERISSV

[8] = molecular target: cGMP-inhibited 3',5'-cyclic phosphodiesterase 3A (Homo sapiens, UniProt Q14432); assay type: functional
[9] = molecular target: 5-hydroxytryptamine receptor 2B (Homo sapiens, UniProt P41595); assay type: functional, cell-based
Also: assay procedure not described here.

Growth hormone secretagogue receptor type 1, sequence (Q92847 whole entry): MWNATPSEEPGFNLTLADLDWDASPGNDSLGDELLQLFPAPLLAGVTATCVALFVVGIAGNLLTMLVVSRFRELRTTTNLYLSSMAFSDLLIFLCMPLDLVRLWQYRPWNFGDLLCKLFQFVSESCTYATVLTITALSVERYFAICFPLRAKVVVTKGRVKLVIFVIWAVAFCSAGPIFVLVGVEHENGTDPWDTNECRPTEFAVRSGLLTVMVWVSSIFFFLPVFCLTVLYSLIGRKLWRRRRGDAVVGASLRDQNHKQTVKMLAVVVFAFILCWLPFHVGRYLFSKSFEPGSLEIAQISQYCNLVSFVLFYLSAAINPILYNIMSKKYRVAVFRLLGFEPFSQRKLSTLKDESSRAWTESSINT
Sodium-dependent dopamine transporter, sequence (Q01959 whole entry): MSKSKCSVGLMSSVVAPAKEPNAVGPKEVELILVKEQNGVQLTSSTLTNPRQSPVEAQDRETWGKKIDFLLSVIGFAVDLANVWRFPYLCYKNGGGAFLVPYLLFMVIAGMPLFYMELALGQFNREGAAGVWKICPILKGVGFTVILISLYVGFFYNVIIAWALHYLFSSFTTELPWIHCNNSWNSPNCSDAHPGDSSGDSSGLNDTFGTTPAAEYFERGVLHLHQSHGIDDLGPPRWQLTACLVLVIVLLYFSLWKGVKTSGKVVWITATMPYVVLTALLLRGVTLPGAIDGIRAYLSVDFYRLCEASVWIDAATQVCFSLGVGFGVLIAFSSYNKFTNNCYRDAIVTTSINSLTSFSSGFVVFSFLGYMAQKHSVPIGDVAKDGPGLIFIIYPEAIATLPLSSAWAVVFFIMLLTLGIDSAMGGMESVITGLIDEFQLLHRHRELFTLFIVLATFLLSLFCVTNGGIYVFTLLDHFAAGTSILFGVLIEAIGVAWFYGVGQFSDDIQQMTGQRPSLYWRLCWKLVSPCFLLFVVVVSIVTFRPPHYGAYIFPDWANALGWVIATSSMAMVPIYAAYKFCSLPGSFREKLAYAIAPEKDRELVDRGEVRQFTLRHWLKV
5-hydroxytryptamine receptor 2B, sequence (P41595 whole entry): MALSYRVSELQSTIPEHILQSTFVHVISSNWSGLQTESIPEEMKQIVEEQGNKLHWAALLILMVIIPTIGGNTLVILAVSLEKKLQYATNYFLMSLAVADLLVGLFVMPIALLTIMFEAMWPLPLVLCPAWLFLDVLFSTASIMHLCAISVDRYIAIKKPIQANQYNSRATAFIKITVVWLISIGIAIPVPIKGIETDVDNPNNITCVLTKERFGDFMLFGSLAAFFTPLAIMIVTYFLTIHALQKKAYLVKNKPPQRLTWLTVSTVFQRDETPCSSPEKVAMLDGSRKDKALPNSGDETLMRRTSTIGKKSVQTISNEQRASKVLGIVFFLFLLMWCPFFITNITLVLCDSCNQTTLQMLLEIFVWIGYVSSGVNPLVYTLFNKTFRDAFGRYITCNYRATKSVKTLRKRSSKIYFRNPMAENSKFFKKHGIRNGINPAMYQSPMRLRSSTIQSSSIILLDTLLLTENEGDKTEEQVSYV
cGMP-inhibited 3',5'-cyclic phosphodiesterase 3A, sequence (Q14432 whole entry): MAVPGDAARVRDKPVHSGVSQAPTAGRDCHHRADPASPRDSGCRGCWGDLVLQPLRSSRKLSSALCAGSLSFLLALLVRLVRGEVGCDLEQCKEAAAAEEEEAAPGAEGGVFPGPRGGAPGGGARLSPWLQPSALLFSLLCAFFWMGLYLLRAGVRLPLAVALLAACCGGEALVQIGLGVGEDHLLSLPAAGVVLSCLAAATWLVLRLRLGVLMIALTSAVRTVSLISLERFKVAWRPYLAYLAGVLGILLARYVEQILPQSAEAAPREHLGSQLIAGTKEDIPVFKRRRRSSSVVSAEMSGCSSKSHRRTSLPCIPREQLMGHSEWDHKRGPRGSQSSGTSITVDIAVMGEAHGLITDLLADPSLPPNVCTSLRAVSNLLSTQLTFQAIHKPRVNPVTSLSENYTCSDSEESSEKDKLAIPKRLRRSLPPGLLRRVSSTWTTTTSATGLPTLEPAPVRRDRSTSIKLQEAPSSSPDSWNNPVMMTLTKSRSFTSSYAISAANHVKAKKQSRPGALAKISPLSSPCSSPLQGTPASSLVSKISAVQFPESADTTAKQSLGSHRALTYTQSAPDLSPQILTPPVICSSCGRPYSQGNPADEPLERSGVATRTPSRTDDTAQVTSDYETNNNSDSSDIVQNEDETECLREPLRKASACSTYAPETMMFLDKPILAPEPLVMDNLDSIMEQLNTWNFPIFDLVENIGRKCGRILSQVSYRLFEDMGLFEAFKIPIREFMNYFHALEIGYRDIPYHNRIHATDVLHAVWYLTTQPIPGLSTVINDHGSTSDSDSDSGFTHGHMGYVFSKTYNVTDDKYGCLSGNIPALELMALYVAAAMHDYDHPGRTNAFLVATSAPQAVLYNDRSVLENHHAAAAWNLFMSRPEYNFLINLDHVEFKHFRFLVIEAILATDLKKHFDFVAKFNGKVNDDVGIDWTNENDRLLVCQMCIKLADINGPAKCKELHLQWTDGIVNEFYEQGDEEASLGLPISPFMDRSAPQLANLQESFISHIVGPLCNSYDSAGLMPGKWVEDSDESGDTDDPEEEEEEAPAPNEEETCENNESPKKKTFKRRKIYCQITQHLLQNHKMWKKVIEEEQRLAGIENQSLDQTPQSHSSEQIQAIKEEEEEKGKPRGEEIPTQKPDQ
Sodium-dependent noradrenaline transporter, sequence (P23975 whole entry): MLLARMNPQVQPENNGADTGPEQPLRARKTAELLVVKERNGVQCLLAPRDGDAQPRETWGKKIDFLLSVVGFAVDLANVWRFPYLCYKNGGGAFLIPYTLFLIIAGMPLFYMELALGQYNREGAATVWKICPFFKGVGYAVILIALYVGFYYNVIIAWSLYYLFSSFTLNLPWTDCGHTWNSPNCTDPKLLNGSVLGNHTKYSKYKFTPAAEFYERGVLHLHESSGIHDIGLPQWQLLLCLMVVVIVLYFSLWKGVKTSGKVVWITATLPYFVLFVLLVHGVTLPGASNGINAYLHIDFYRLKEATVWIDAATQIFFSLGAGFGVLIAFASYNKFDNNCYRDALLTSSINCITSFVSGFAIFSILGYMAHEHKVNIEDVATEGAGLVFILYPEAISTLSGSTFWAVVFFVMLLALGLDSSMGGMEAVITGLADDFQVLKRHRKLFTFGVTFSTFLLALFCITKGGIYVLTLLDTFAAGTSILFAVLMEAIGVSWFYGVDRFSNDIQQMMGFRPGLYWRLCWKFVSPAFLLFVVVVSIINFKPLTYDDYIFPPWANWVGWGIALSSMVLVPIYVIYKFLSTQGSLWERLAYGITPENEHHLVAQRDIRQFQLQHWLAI
Histamine H3 receptor, sequence (Q9Y5N1 whole entry): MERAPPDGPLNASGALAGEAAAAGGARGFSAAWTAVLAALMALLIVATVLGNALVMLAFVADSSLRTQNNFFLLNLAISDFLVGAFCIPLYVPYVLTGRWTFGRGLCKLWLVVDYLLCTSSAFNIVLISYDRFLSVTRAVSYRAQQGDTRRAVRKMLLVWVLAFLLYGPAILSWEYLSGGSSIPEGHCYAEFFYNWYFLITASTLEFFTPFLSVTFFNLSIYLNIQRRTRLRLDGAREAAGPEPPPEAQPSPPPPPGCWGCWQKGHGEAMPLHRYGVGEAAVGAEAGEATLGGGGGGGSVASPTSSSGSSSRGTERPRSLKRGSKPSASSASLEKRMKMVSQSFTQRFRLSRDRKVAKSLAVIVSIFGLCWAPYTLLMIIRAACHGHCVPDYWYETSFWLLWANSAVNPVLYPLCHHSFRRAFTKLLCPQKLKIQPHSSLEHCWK
Gamma-aminobutyric acid receptor subunit alpha-1, sequence (P62813 whole entry): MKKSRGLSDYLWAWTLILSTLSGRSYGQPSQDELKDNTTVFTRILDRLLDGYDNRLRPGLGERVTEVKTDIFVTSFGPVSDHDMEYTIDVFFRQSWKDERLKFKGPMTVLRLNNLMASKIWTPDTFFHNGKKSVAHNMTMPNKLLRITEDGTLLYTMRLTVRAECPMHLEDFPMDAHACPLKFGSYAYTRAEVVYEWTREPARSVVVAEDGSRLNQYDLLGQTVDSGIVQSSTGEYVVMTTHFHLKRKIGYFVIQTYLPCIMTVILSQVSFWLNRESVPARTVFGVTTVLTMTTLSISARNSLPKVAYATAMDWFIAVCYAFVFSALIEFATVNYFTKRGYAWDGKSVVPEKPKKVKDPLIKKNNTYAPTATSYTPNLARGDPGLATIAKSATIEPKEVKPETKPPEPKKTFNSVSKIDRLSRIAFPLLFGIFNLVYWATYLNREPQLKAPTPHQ
Vasopressin V1a receptor, sequence (P37288 whole entry): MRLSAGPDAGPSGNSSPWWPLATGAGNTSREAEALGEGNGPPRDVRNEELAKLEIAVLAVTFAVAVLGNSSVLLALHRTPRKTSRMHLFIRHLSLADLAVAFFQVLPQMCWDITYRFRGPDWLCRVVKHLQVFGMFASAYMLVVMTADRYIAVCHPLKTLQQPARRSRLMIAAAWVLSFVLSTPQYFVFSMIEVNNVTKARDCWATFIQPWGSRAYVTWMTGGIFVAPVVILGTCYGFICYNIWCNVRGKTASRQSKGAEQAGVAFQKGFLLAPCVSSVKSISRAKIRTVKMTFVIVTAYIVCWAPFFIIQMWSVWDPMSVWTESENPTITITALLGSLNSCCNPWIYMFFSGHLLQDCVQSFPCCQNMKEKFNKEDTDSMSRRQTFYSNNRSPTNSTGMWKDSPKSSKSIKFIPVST

SMILES | AC50 [1] | AC50 (Thromboxane A2 receptor) | AC50 (Glucocorticoid receptor) | AC50 [2] | AC50 [3] | AC50 [4] | AC50 [5] | AC50 (Histamine H3 receptor) | AC50 (Vasopressin V1a receptor) | AC50 [6] | AC50 [7] | AC50 [8] | AC50 [9]
COc1cc(C)c(/C=C/C(C)=C/C=C/C(C)=C/C(=O)O)c(C)c1C [ACITRETIN] | > 10 µM | > 10 µM | > 30 µM | > 10 µM | > 10 µM | > 30 µM | > 10 µM | > 10 µM | > 10 µM | > 10 µM | > 30 µM | > 10 µM | > 10 µM
O=C(O)CCNC(=O)c1ccc(/N=N/c2ccc(O)c(C(=O)O)c2)cc1 [BALSALAZIDE] | > 30 µM | > 30 µM | > 30 µM | > 30 µM | > 30 µM | 15 µM | > 30 µM | 35.5 µM | 33.7 µM | > 30 µM | > 30 µM | > 30 µM | > 30 µM
Clc1ccc(CCC(Cn2ccnc2)Sc2c(Cl)cccc2Cl)cc1 (configuration not stated) [BUTOCONAZOLE] | > 30 µM | > 30 µM | 18 µM | > 30 µM | > 30 µM | > 30 µM | > 30 µM | > 30 µM | > 30 µM | 20 µM | > 30 µM | > 30 µM | > 30 µM
CCOC(=O)C(C)(C)Oc1ccc(Cl)cc1 [CLOFIBRATE] | > 30 µM | > 30 µM | > 30 µM | > 10 µM | > 30 µM | > 30 µM | > 30 µM | > 10 µM | > 30 µM | > 30 µM | > 30 µM | > 30 µM | > 10 µM
CCCCOc1ccc(C(=O)CCN2CCCCC2)cc1 [DYCLONINE] | 2.3 µM | > 30 µM | > 30 µM | > 10 µM | > 30 µM | > 10 µM | > 30 µM | 3.9 µM | > 10 µM | 4.82 µM | > 10 µM | > 10 µM | > 10 µM
CC/C=C\C/C=C\C/C=C\C/C=C\C/C=C\CCCC(=O)OCC [ICOSAPENT ETHYL] | > 30 µM | > 30 µM | > 30 µM | > 30 µM | > 30 µM | > 30 µM | > 30 µM | > 30 µM | > 30 µM | > 30 µM | > 30 µM | > 30 µM | > 30 µM
NNC(=O)c1ccncc1 [ISONIAZID] | > 30 µM | > 30 µM | > 30 µM | > 30 µM | > 30 µM | > 30 µM | > 30 µM | > 30 µM | > 30 µM | > 30 µM | > 30 µM | > 30 µM | > 30 µM
COc1ccc(CN2CCN(C(c3ccc(F)cc3)c3ccc(F)cc3)CC2)c(OC)c1OC [LOMERIZINE] | 18 µM | > 30 µM | > 30 µM | > 30 µM | > 30 µM | > 30 µM | 27 µM | > 30 µM | > 30 µM | 16 µM | 16 µM | > 30 µM | 5.9 µM
O=C1Nc2ccc(Cl)cc2C(c2ccccc2Cl)=NC1O (configuration not stated) [LORAZEPAM] | > 10 µM | > 30 µM | > 30 µM | > 10 µM | > 30 µM | > 30 µM | > 30 µM | > 10 µM | > 10 µM | > 10 µM | > 30 µM | > 30 µM | > 10 µM
CN1CCN=C(c2ccccc2)c2cc(Cl)ccc21 [MEDAZEPAM] | > 30 µM | > 30 µM | > 30 µM | > 30 µM | > 30 µM | > 30 µM | > 30 µM | > 30 µM | > 30 µM | 22 µM | 25 µM | > 30 µM | > 30 µM
Cc1ccnc2c1NC(=O)c1cccnc1N2C1CC1 [NEVIRAPINE] | > 10 µM | > 30 µM | > 30 µM | > 10 µM | > 30 µM | > 10 µM | > 30 µM | > 10 µM | > 10 µM | > 10 µM | > 10 µM | 4.5 µM | > 10 µM
O=C(NCCO[N+](=O)[O-])c1cccnc1 [NICORANDIL] | > 30 µM | > 30 µM | > 30 µM | > 30 µM | > 30 µM | > 30 µM | > 30 µM | > 30 µM | > 30 µM | > 30 µM | > 30 µM | > 30 µM | > 30 µM
COc1cc2[nH]c(C)c(CCN3CCN(c4ccccc4)CC3)c2cc1OC [OXYPERTINE] | 14 µM | > 30 µM | > 30 µM | > 30 µM | > 30 µM | > 30 µM | > 30 µM | > 30 µM | > 30 µM | 2.3 µM | 0.49 µM | > 30 µM | 0.12 µM
OC[C@H]1O[C@@H](Oc2cc(O)cc(/C=C/c3ccc(O)cc3)c2)[C@H](O)[C@@H](O)[C@@H]1O [PICEID] | > 30 µM | > 30 µM | > 30 µM | > 30 µM | > 30 µM | > 30 µM | > 30 µM | > 30 µM | > 30 µM | > 30 µM | > 30 µM | > 30 µM | > 30 µM
